The values below are quoted from earlier work in US12685722B2, “Compositions of matter and pharmaceutical compositions” (Atai Therapeutics, Inc., priority 2020, dated 2026).

Regarding `CN(C)CCc1c[nH]c2cccc(O)c12` [psilocin], the in vivo half-life entry was “about 50 minutes”. The psychedelic experiences lasting (in vivo) is 4 to 6 h.
